Measurements from ChEMBL document CHEMBL4732190, “Identification of Potent and Long-Acting Single-Chain Peptide Mimetics of Human Relaxin-2 for Cardiovascular Diseases” (J Med Chem, 2021).
Values after ≈ are worked out from the molar mass of the structure shown. *1 amine or outer side, *2 acyl side, *3 side chain or, on linkers, in order; H or OH if unused. Where a SMILES comes first, the peptide text is derived from it. [ ]: non-standard residue; d: D form. The star is where a group is joined. PEG11 = NCCOCCOCCOCCOCCOCCOCCOCCOCCOCCOCCOCCC(=O)O; X3 = CCCCCCCCCCCCCCCCCCC(=O)[C@H](CCC(N)=O)N*; X2 = CCCCCCCCCCCCCCCCCC(=O)[C@H](CCC(N)=O)N*; X1 = CCCCCCCCCCCCCCCCC(=O)[C@H](CCC(N)=O)N*; β2hAla(2S) = C[C@@H](CN[*:1])C(=O)[*:2]; hLys = NCCCCC[C@H](N)C(=O)O; Nle = CCCC[C@H](N)C(=O)O; AEEA = NCCOCCOCC(=O)O

Assays:
[1] = Stability in human blood assessed as parent compound at 5 uM remaining after 4 hrs; type: ADME, tissue-based; conditions: read-out: Stabilty
[2] = biological target: T1, Relaxin receptor 1 (Homo sapiens) (UniProt Q9HBX9); assay: Agonist activity at RXFP1 endogenously expressed in human OVCAR-5 cells assessed as increase in IBMX-induced cAMP accumulation pretreated with IBMX for 40 mins followed by compound addition and measured after 30 mins by HTRF assay relative to relaxin; type: functional, cell-based; conditions: filed as agonist
T1 sequence (whole entry): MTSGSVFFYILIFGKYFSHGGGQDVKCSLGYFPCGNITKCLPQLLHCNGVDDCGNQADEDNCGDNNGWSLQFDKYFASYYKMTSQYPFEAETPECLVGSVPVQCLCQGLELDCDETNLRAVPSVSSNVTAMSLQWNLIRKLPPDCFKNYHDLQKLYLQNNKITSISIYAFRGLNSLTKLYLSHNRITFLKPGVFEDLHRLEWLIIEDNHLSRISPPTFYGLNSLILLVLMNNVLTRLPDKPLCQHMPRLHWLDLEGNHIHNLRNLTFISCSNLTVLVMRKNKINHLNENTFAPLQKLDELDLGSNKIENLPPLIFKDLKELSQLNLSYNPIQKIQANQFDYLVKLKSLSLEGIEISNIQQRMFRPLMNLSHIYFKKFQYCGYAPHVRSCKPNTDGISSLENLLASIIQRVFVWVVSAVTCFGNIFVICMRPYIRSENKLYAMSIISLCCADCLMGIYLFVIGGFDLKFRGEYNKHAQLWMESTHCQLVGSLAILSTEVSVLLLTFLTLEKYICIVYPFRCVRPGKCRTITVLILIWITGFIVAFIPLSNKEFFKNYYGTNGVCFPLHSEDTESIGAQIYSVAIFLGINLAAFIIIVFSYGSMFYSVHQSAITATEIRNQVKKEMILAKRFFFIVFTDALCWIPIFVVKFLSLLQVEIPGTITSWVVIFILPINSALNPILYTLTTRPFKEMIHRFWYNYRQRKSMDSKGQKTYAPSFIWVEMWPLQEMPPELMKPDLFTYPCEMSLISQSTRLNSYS

[3] = Half life in Sprague-Dawley rat at 1 mg/kg, iv measured upto 72 hrs by LC-HRMS analysis; type: ADME, organism-based; conditions: in vivo
[4] = Stability in rat blood assessed as parent compound at 5 uM remaining after 4 hrs; type: ADME, tissue-based; conditions: read-out: Stabilty
[5] = biological target: T2, Relaxin receptor 1 (Homo sapiens, UniProt Q9HBX9); assay: Agonist activity at RXFP1 endogenously expressed in human OVCAR-5 cells assessed as increase in IBMX-induced cAMP accumulation pretreated with IBMX for 40 mins followed by compound addition and measured after 30 mins by HTRF assay; type: functional, cell-based
T2 sequence (Q9HBX9 whole entry): T1 sequence (whole entry)

[6] = biological target: T1, Relaxin receptor 1 (Homo sapiens); assay: Agonist activity at RXFP1 endogenously expressed in human OVCAR-5 cells assessed as increase in IBMX-induced cAMP accumulation pretreated with IBMX for 40 mins followed by compound addition and measured after 30 mins in presence of 2 % HSA by HTRF assay relative to control; type: functional, cell-based; conditions: filed as agonist
[7] = Bioavailability in Sprague-Dawley rat at 3 mg/kg, sc measured upto 72 hrs by LC-HRMS analysis; type: ADME, organism-based; conditions: in vivo
[8] = biological target: T2, Relaxin receptor 1; assay: Agonist activity at RXFP1 endogenously expressed in human OVCAR-5 cells assessed as increase in IBMX-induced cAMP accumulation pretreated with IBMX for 40 mins followed by compound addition and measured after 30 mins in presence of 2 % HSA by HTRF assay; type: functional, cell-based
[9] = biological target: T1, Relaxin receptor 1 (Homo sapiens); assay: Selectivity ratio of EC50 for agonist activity at RXFP1 endogenously expressed in human OVCAR-5 cells in presence of 2 % HSA to EC50 for agonist activity at RXFP1 endogenously expressed in human OVCAR-5 cells in absence of HSA; type: cell-based
[10] = Stability in human plasma assessed as parent compound remaining level at 5 uM remaining after 4 hrs; type: ADME, cell-free; conditions: read-out: Stabilty
[11] = Aqueous solubility of compound in phosphate buffer at pH 7.4 measured after 24 hrs by UPLC analysis; type: physicochemical
[12] = Stability in rat plasma assessed as parent compound remaining level at 5 uM remaining after 4 hrs; type: ADME, cell-free; conditions: read-out: Stabilty
[13] = Positive chronotropic activity in pithed Sprague-Dawley rat assessed as increase in heart rate at 20 to 1000 mg/kg, iv administered as bolus dose measured after 60 mins post dose; type: ADME, organism-based; conditions: in vivo, 1 h, dose 20-1000 mg/kg
[14] = Positive chronotropic activity in pithed Sprague-Dawley rat assessed as increase in heart rate at 1000 mg/kg, iv administered as bolus dose measured after 60 mins post dose; type: ADME, organism-based; conditions: in vivo, 1 h

SMILES	remaining at 4 h, 5 µM [1] [%]	Emax [2] [%]	half-life [3] [h]	remaining at 4 h, 5 µM [4] [%]	EC50 [5] [nM]	Emax [6] [%]	bioavailability [7] [%]	EC50 [8] [nM]	Ratio EC50 [9]	remaining at 4 h, 5 µM [10] [%]	solubility at 24 h [11] [µg/mL]	remaining at 4 h, 5 µM [12] [%]	Activity [13]	Emin [14] [%]
CCCCCCCCCCCCCCCCC(=O)[C@H](CCC(N)=O)NC(=O)[C@H](CCC(=O)O)NC(=O)[C@H](CCC(=O)O)NC(=O)[C@H](CCCCN)NC(=O)COCCOCCNC(=O)COCCOCCNC(=O)COCCOCCNC(=O)[C@H](CCCCCNC(C)=O)NC(=O)[C@H](CCCCN)NC(=O)[C@H](CCCCN)NC(=O)[C@H](CCCNC(=N)N)NC(=O)[C@@H](C)CNC(=O)[C@H](CO)NC(=O)[C@H](Cc1c[nH]c2ccccc12)NC(=O)[C@@H](NC(=O)[C@H](CO)NC(=O)[C@H](CCCCCNC(C)=O)NC(=O)[C@H](CCCCN)NC(=O)[C@H](CCCC)NC(=O)[C@H](CCSC)NC(=O)CNC(=O)[C@H](CCC(=O)O)NC(=O)[C@@H](C)CNC(=O)[C@@H](C)CNC(=O)[C@@H](NC(=O)[C@H](CCCCCNC(C)=O)NC(=O)[C@H](CCCCN)NC(=O)[C@H](C)NC(=O)[C@H](CCCNC(=N)N)NC(=O)[C@@H](NC(=O)[C@H](CCCCN)NC(=O)[C@H](CCC(=O)O)NC(=O)[C@H](CCCNC(=N)N)NC(=O)[C@H](CCC(=O)O)NC(=O)CNC(=O)[C@H](CCC(=O)O)NC(=O)[C@H](CC(C)C)NC(C)=O)C(C)C)[C@@H](C)CC)[C@@H](C)O (Ac-LEGEREKVRAK[hLys](Ac)I[β2hAla(2S)][β2hAla(2S)]EGM[Nle]K[hLys](Ac)STWS[β2hAla(2S)]RKK[hLys](Ac)[AEEA][AEEA][AEEA]KEE-X1)	87	80	5.7	79	1	96	47	87	87					
CCCCCCCCCCCCCCCCCCC(=O)[C@H](CCC(N)=O)NC(=O)[C@H](CCC(=O)O)NC(=O)[C@H](CCC(=O)O)NC(=O)[C@H](CCCCN)NC(=O)CCOCCOCCOCCOCCOCCOCCOCCOCCOCCOCCOCCNC(=O)[C@H](CCCCCNC(C)=O)NC(=O)[C@H](CCCCN)NC(=O)[C@@H](C)CNC(=O)[C@@H](C)CNC(=O)[C@@H](NC(=O)[C@H](CCCCCNC(C)=O)NC(=O)[C@H](CCCCN)NC(=O)[C@H](C)NC(=O)[C@H](CCCNC(=N)N)NC(=O)[C@@H](NC(=O)[C@H](CCCCN)NC(=O)[C@H](CCC(=O)O)NC(=O)[C@H](CCCNC(=N)N)NC(=O)[C@H](CCC(=O)O)NC(=O)CNC(=O)[C@H](CCC(=O)O)NC(=O)[C@H](CC(C)C)NC(C)=O)C(C)C)[C@@H](C)CC (Ac-LEGEREKVRAK[hLys](Ac)I[β2hAla(2S)][β2hAla(2S)]K[hLys](Ac)[PEG11]KEE-X3)		95	43		0.6	84		9	15	93	5400 (≈ 1570 µM)	80		
CCCCCCCCCCCCCCCCCC(=O)[C@H](CCC(N)=O)NC(=O)[C@H](CCC(=O)O)NC(=O)[C@H](CCC(=O)O)NC(=O)[C@H](CCCCN)NC(=O)CCOCCOCCOCCOCCOCCOCCOCCOCCOCCOCCOCCNC(=O)[C@H](CCCCN)NC(=O)[C@H](CCCNC(=N)N)NC(=O)[C@@H](C)CNC(=O)[C@H](CO)NC(=O)[C@H](Cc1c[nH]c2ccccc12)NC(=O)[C@@H](NC(=O)[C@H](CO)NC(=O)[C@H](CCCC)NC(=O)[C@H](CCSC)NC(=O)CNC(=O)[C@H](CCC(=O)O)NC(=O)[C@@H](C)CNC(=O)[C@@H](C)CNC(=O)[C@@H](NC(=O)[C@H](CCC(N)=O)NC(=O)[C@H](C)NC(=O)[C@H](CCCNC(=N)N)NC(=O)[C@@H](NC(=O)[C@H](CCCCN)NC(=O)[C@H](CCC(=O)O)NC(=O)[C@H](CCCNC(=N)N)NC(=O)[C@H](CCC(=O)O)NC(=O)CNC(=O)[C@H](CCC(=O)O)NC(=O)[C@H](CC(C)C)NC(C)=O)C(C)C)[C@@H](C)CC)[C@@H](C)O (Ac-LEGEREKVRAQI[β2hAla(2S)][β2hAla(2S)]EGM[Nle]STWS[β2hAla(2S)]RK[PEG11]KEE-X2)		79	4.8		1	80	100	31	31					
CCCCCCCCCCCCCCCCC(=O)[C@H](CCC(N)=O)NC(=O)[C@H](CCC(=O)O)NC(=O)[C@H](CCC(=O)O)NC(=O)[C@H](CCCCN)NC(=O)[C@H](CCCCN)NC(=O)[C@H](CCCNC(=N)N)NC(=O)[C@@H](C)CNC(=O)[C@H](CO)NC(=O)[C@H](Cc1c[nH]c2ccccc12)NC(=O)[C@@H](NC(=O)[C@H](CO)NC(=O)[C@H](CCSC)NC(=O)CNC(=O)[C@H](CCC(=O)O)NC(=O)[C@@H](C)CNC(=O)[C@@H](C)CNC(=O)[C@@H](NC(=O)[C@H](CCC(N)=O)NC(=O)[C@H](C)NC(=O)[C@H](CCCNC(=N)N)NC(=O)[C@@H](NC(=O)[C@H](CCCCN)NC(=O)[C@H](CCC(=O)O)NC(=O)[C@H](CCCNC(=N)N)NC(=O)[C@H](CCC(=O)O)NC(=O)CNC(=O)[C@H](CCC(=O)O)NC(=O)[C@H](CC(C)C)NC(C)=O)C(C)C)[C@@H](C)CC)[C@@H](C)O (Ac-LEGEREKVRAQI[β2hAla(2S)][β2hAla(2S)]EGMSTWS[β2hAla(2S)]RKKEE-X1)	91	97	4.3	93	17.6			> 3000	> 170					
CCCCCCCCCCCCCCCCCC(=O)[C@H](CCC(N)=O)NC(=O)[C@H](CCC(=O)O)NC(=O)[C@H](CCC(=O)O)NC(=O)[C@H](CCCCN)NC(=O)COCCOCCNC(=O)COCCOCCNC(=O)COCCOCCNC(=O)[C@H](CCCCCNC(C)=O)NC(=O)[C@H](CCCCN)NC(=O)[C@H](CCCCN)NC(=O)[C@H](CCCNC(=N)N)NC(=O)[C@@H](C)CNC(=O)[C@H](CO)NC(=O)[C@H](Cc1c[nH]c2ccccc12)NC(=O)[C@@H](NC(=O)[C@H](CO)NC(=O)[C@H](CCCCCNC(C)=O)NC(=O)[C@H](CCCCN)NC(=O)[C@H](CCCC)NC(=O)[C@H](CCSC)NC(=O)CNC(=O)[C@H](CCC(=O)O)NC(=O)[C@@H](C)CNC(=O)[C@@H](C)CNC(=O)[C@@H](NC(=O)[C@H](CCCCCNC(C)=O)NC(=O)[C@H](CCCCN)NC(=O)[C@H](C)NC(=O)[C@H](CCCNC(=N)N)NC(=O)[C@@H](NC(=O)[C@H](CCCCN)NC(=O)[C@H](CCC(=O)O)NC(=O)[C@H](CCCNC(=N)N)NC(=O)[C@H](CCC(=O)O)NC(=O)CNC(=O)[C@H](CCC(=O)O)NC(=O)[C@H](CC(C)C)NC(C)=O)C(C)C)[C@@H](C)CC)[C@@H](C)O (Ac-LEGEREKVRAK[hLys](Ac)I[β2hAla(2S)][β2hAla(2S)]EGM[Nle]K[hLys](Ac)STWS[β2hAla(2S)]RKK[hLys](Ac)[AEEA][AEEA][AEEA]KEE-X2)		89	3.9		0.2	89		18.4	92	111	11400 (≈ 2330 µM)	114	Dose-dependent effect	26
